For one compound, inhibition and remaining activity results are on record in patent publication US9492471B2, “Methods of treating a disease or disorder associated with Bruton'S Tyrosine Kinase” (Celgene Avilomics Research, Inc., priority 2013, dated 2016).

Assay in all cases: HotSpot kinase profiling
What all share (assay type): biochemical

One test deals with T1, CLK4 (Homo sapiens, UniProt Q9HAZ1).
T1 construct: purchased Reaction Biology Corp
As to the method: (§1) The binding assay system for profiling kinase activity were based upon HotSpot technology (Reaction Biology Corp.; Malvern, Pa., USA) and utilized radio-isotope-based P81 filtration. […] Substrates for the various kinases tested against Compound 2 (substrate information available on the Reaction Biology Corp. website) were prepared fresh daily in Reaction Buffer. Any required cofactors were then added to the substrate solution. The identification and selection of the appropriate cofactor for each kinase is within the ability of a person skilled in the art. See, for example, Handbook of Assay Development in Drug Discovery, Ed. Lisa K. Minor, 2006: CRC Press, Boca Raton, Fla.; Gao et al., “A broad activity screen in support of a chemogenomic map for kinase signalling research and drug discovery,” Biochem J. 2013, 451(2): 313-28; and Eglen et al., “Drug discovery and the human kinome: Recent trends,” Pharmacology & Therapeutics 2011, 130(2): 144-156. The kinase was then added to the substrate solution and gently mixed. […] This was followed by incubation at room temperature for 2 h. The reaction was terminated and any unreacted phosphate was washed away using 0.1% phosphoric acid prior to detection utilizing a proprietary technology. […] DMSO was used as the negative control.
(§2) Percent inhibition was expressed as an average where the assay was performed more than once, e.g., in duplicate.

Another test addresses T2, EPHA6 (Homo sapiens, UniProt Q9UF33).
T2 construct: purchased Reaction Biology Corp
T2 sequence (Q9UF33 23-1036): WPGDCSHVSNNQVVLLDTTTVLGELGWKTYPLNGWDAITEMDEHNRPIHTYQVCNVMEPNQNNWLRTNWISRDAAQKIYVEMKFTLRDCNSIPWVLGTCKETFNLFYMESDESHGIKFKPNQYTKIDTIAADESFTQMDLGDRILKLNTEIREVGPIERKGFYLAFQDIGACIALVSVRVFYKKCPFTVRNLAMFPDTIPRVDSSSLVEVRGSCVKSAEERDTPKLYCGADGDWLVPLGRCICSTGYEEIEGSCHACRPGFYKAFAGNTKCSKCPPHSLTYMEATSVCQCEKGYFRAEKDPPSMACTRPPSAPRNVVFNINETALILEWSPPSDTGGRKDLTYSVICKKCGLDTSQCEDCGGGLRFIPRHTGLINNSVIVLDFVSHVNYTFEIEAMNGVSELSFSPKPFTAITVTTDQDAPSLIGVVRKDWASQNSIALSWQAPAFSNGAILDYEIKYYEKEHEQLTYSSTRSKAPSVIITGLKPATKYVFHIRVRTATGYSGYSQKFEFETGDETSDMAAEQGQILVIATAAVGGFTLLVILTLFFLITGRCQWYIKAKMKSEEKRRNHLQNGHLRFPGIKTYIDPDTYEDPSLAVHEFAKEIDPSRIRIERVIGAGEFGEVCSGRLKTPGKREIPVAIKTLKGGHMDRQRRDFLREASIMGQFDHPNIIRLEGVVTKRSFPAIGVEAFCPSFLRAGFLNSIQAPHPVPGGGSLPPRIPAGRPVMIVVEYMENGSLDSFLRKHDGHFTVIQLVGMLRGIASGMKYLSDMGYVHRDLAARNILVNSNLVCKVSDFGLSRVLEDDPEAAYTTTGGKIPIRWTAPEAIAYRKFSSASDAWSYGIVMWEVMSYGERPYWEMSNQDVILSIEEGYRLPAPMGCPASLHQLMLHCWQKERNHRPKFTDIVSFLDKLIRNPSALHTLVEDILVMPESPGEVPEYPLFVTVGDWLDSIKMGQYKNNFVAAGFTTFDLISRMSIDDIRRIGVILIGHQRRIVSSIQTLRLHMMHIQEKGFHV
The method, then: as §1, §2

The target in a further test is T3, FLT4/VEGFR3 (Homo sapiens, UniProt P35916).
T3 construct: purchased Reaction Biology Corp
T3 sequence (P35916 25-1363): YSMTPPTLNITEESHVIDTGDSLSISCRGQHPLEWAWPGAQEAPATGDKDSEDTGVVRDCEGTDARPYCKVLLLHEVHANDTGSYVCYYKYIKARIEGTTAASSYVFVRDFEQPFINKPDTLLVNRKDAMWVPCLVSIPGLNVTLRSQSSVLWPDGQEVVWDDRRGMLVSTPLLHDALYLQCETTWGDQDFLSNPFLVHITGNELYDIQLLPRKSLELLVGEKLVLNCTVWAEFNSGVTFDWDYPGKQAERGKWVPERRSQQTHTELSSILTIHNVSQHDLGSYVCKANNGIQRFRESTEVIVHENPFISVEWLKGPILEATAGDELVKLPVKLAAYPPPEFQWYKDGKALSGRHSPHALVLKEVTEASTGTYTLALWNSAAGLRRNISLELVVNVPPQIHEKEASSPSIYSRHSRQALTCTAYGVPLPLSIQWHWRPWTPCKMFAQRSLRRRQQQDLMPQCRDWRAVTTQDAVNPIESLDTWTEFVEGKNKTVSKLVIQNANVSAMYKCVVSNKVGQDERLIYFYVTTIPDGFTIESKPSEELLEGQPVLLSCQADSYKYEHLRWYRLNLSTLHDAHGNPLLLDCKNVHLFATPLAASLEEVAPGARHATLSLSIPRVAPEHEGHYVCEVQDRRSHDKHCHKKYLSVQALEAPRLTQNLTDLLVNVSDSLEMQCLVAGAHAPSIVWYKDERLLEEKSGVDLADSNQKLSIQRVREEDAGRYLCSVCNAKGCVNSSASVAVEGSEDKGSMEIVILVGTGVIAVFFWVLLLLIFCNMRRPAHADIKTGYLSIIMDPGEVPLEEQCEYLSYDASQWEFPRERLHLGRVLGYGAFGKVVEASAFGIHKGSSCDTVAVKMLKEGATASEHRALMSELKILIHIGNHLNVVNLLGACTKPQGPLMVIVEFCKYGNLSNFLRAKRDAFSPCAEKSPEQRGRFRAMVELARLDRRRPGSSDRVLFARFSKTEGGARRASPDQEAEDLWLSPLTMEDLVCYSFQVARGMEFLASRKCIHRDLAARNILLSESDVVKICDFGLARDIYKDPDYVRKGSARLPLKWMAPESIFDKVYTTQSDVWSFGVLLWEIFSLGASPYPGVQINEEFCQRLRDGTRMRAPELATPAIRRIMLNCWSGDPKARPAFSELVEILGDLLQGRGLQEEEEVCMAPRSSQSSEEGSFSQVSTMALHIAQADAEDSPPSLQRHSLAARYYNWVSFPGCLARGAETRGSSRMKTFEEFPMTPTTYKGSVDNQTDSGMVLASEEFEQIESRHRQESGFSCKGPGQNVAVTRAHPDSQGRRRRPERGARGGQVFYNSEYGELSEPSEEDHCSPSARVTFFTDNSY
The method, then: as §1, §2

A further test deals with T4, JAK1 (Homo sapiens, UniProt P23458).
T4 construct: purchased Reaction Biology Corp
T4 sequence (P23458 whole entry): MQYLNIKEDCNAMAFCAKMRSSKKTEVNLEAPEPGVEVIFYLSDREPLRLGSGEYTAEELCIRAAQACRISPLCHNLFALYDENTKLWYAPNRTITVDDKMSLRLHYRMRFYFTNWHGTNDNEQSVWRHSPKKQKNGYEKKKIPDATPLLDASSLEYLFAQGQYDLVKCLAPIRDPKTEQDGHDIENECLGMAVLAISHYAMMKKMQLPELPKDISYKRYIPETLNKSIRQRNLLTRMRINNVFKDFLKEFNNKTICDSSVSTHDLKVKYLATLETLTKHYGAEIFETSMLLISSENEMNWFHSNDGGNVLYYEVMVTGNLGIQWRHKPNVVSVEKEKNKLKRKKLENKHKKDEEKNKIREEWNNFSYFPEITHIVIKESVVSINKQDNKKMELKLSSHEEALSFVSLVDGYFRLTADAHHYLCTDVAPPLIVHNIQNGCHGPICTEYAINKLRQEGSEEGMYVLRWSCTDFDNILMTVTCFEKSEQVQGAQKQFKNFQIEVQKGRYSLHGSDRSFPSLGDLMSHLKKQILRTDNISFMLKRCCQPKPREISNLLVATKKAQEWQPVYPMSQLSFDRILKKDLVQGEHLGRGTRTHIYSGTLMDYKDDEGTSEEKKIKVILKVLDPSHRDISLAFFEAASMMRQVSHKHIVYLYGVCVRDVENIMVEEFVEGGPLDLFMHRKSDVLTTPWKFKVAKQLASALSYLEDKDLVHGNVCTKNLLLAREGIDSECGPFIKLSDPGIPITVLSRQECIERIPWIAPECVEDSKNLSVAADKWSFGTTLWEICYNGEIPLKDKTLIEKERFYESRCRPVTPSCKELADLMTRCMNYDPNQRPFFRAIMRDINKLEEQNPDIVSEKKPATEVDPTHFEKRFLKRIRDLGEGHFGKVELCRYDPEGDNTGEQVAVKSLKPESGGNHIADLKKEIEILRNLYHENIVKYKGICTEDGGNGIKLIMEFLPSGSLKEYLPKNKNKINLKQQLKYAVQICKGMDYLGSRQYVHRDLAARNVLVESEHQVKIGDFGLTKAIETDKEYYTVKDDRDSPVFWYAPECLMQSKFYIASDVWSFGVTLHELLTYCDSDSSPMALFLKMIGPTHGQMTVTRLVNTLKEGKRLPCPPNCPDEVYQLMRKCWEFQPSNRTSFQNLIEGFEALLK
As to the method:
as §1, §2

The target in another test is T5, MRCKb/CDC42BPB (Homo sapiens, UniProt Q9Y5S2).
T5 construct: purchased Reaction Biology Corp
T5 sequence (Q9Y5S2 whole entry): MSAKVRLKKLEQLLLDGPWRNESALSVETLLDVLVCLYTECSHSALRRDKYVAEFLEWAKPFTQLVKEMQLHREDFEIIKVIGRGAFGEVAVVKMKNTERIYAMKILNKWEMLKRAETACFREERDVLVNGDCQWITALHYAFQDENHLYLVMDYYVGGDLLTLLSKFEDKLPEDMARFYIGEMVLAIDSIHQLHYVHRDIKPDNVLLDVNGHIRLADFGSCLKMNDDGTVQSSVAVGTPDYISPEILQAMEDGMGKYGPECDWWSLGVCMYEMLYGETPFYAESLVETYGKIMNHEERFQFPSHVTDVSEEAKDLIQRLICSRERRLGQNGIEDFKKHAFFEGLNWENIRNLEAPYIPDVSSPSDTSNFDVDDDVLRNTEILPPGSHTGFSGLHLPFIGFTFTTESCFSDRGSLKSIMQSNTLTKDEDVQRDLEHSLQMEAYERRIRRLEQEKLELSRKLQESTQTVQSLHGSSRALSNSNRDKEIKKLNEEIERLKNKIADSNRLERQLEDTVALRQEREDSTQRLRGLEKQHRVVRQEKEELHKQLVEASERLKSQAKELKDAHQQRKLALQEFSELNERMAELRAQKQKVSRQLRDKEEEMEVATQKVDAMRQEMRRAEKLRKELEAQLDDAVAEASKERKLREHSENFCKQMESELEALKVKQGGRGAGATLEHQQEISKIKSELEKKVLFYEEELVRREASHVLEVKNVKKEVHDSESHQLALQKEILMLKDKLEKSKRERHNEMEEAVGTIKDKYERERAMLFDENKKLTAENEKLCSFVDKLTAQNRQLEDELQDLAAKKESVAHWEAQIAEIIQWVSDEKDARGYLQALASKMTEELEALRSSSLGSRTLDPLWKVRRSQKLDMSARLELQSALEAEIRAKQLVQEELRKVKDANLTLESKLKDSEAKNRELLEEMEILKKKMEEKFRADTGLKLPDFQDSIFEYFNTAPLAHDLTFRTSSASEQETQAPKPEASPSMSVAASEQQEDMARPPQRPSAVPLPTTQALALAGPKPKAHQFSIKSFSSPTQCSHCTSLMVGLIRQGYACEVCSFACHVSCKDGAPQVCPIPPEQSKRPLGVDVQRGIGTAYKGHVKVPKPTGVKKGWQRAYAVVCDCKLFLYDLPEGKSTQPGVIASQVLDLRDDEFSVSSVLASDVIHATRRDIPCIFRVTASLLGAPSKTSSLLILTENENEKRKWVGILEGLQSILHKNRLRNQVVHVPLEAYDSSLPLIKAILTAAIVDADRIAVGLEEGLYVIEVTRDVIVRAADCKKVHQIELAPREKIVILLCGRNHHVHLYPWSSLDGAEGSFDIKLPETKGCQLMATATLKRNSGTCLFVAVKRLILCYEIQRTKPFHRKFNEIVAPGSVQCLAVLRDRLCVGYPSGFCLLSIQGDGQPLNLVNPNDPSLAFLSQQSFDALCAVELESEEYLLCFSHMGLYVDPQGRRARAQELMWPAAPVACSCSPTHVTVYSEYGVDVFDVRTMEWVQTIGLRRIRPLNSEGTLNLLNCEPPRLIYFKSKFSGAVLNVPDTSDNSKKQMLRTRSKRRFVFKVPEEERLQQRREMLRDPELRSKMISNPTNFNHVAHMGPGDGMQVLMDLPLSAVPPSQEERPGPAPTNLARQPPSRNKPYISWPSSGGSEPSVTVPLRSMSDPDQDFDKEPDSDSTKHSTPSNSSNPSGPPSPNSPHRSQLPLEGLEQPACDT
The method, then:
as §1, §2

The next test concerns the target T6, P38d/MAPK13 (Homo sapiens, UniProt O15264).
T6 construct: purchased Reaction Biology Corp
T6 sequence (O15264 1-365): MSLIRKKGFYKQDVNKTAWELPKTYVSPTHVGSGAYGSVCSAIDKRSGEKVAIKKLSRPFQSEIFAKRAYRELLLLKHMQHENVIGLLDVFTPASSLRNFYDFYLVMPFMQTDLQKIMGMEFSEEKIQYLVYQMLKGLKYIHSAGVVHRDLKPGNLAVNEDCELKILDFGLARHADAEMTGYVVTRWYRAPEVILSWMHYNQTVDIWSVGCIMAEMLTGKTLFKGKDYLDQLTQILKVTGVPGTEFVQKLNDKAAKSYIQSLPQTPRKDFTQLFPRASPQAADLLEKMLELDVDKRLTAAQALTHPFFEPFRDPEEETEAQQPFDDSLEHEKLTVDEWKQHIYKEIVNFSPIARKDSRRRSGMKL
As to the method:
as §1, §2

The next test deals with T7, RSK3 (Homo sapiens, UniProt Q15349).
T7 construct: purchased Reaction Biology Corp
As to the method:
as §1, §2

The next test deals with T8, SSTK/TSSK6 (Homo sapiens, UniProt Q9BXA6).
T8 construct: purchased Reaction Biology Corp
T8 sequence (Q9BXA6 whole entry): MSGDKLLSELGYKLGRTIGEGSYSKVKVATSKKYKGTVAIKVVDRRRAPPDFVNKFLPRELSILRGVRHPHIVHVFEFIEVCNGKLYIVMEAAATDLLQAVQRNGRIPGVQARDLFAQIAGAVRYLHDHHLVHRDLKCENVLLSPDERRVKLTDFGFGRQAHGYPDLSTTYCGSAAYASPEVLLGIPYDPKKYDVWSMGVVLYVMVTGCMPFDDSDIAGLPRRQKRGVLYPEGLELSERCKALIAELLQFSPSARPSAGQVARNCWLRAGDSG
As to the method:
as §1, §2

Setting [1] is: read-out: % Enzyme Activity (relative to DMSO controls) Run 1.
Setting [2] is: read-out: % Enzyme Activity (relative to DMSO controls) Run 2.

SMILES strings stand for the structures. Like-named read-outs stand apart in the source and are kept apart here.

T1 sequence (Q9HAZ1 whole entry): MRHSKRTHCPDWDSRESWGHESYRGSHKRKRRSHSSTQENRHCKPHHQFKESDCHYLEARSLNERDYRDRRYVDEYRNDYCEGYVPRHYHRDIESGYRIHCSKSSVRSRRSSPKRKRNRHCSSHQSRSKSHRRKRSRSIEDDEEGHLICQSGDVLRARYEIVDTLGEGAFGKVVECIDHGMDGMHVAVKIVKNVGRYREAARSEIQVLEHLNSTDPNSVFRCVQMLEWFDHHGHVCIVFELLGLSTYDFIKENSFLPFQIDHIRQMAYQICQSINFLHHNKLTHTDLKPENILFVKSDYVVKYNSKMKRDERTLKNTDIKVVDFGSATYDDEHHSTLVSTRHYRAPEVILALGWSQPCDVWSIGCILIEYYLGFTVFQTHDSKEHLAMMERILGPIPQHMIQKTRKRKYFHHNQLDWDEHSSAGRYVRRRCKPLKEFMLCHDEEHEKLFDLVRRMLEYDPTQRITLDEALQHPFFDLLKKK

In the case of `C=CC(=O)Nc1cccc(Nc2nc(Nc3ccc(OCCOC)c(F)c3)ncc2F)c1` [Compound 2], the inhibition (as a rule, the change of the read-out against control, counted positive when it falls) at 3 µM on CLK4 was 44.3%; against EPHA6, 1.24%; against FLT4/VEGFR3 it was 56%; against JAK1 it was 40.6%; against MRCKb/CDC42BPB it was -6.12%; against P38d/MAPK13, 0.64%. Besides, the inhibition at 3 µM on RSK3 was 14.5%; on SSTK/TSSK6 it was -3.6%. The remaining activity at 3 µM on CLK4 (setting [1]) was 57.4%; at CLK4 (setting [2]) it was 53.9%; on EPHA6 (setting [1]) it was 95.5%; on EPHA6 (setting [2]) it was 102%; on FLT4/VEGFR3 (setting [1]), 43.8%; at FLT4/VEGFR3 (setting [2]), 44.2%. Further, the remaining activity at 3 µM at JAK1 (setting [1]) was 59.7%; at JAK1 (setting [2]) it was 59%; on MRCKb/CDC42BPB (setting [1]), 107%; on MRCKb/CDC42BPB (setting [2]) it was 105%; at P38d/MAPK13 (setting [1]), 98.9%; at P38d/MAPK13 (setting [2]) it was 99.8%. Further, the remaining activity at 3 µM on RSK3 (setting [1]) came out at 85.8%; on RSK3 (setting [2]), 85.2%; at SSTK/TSSK6 (setting [1]) it was 107%; on SSTK/TSSK6 (setting [2]), 99.8%.
